Key:
MEIS1 mRNA expression = MEIS1 mRNA expression assay (Quantigene Singleplex) in MOLM14; type: cell-based; conditions: Homo sapiens, MOLM-14, 48 h, MOLM14 cells, 48 hours with compound
Experimental: 2b) MEIS1 mRNA Expression Assay
MEIS1 mRNA expression upon treatment of compound was examined by Quantigene Singleplex assay (Thermo Fisher Scientific). This technology allows for direct quantification of mRNA targets using probes hybridizing to defined target sequences of interest and the signal is detected using a Multimode plate reader Envision (PerkinElmer). The MOLM14 cell line was used for this experiment. Cells were plated in 96-well plates at 3,750 cells/well in the presence of increasing concentrations of compounds. After incubation of 48 hours with compounds, cells were lysed in lysis buffer and incubated for 45 minutes at 55° C. Cell lysates were mixed with human MEIS1 specific capture probe or human RPL28 (Ribosomal Protein L28) specific probe as a normalization control, as well as blocking probes. Cell lysates were then transferred to the custom assay hybridization plate (Thermo Fisher Scientific) and incubated for 18 to 22 hours at 55° C. Subsequently, plates were washed to remove unbound materials followed by sequential addition of preamplifiers, amplifiers, and label probe. Signals (=gene counts) were measured with a Multimode plate reader Envision. IC50s were calculated by dose-response modelling using appropriate software. For all non-housekeeper genes response equal counts corrected for background and relative expression. For each sample, each test gene signal (background subtracted) was divided by the normalization gene signal (RPL28: background subtracted). Fold changes were calculated by dividing the normalized values for the treated samples by the normalized values for the DMSO treated sample. Fold changes of each target gene were used for the calculation of IC50s.

MOLM14 cells = test: Proliferation assay (spheroid assay), MOLM14; type: cell-based; conditions: Homo sapiens, MOLM-14, 192 h, 8 days; read-out: spheroid assay_MOLM14 IC50
Experimental: (§1) The anti-proliferative effect of menin/MLL protein/protein interaction inhibitor test compounds was assessed in human leukemia cell lines. The cell line MOLM14 harbors a MLL translocation and expresses the MLL fusion protein MLL-AF9, respectively, as well as the wildtype protein from the second allele. OCI-AML3 cells that carry the NPM1c gene mutation were also tested. […] KO-52 was used as a control cell line containing two MLL (KMT2A) wildtype alleles in order to exclude compounds that display general cytotoxic effects.
(§2) MOLM14 cells were cultured in RPMI-1640 (Sigma Aldrich) supplemented with 10% heat-inactivated fetal bovine serum (HyClone), 2 mM L-glutamine (Sigma Aldrich) and 50 μg/ml gentamycin (Gibco). KO-52 and OCI-AML3 cell lines were propagated in alpha-MEM (Sigma Aldrich) supplemented with 20% heat-inactivated fetal bovine serum (HyClone), 2 mM L-glutamine (Sigma Aldrich) and 50 µg/ml gentamycin (Gibco).
In order to assess the anti-proliferative effects, 200 MOLM14 cells, […] or 300 KO-52 cells were seeded in 200 μl media per well in 96-well round bottom, ultra-low attachment plates (Costar, catalogue number 7007). Cell seeding numbers were chosen based on growth curves to ensure linear growth throughout the experiment. Test compounds were added at different concentrations and the DMSO content was normalized to 0.3%. Cells were incubated for 8 days at 37° C. and 5% CO2. Spheroid like growth was measured in real-time by live-cell imaging (IncuCyteZOOM, Essenbio, 4× objective) acquiring images at day 8. Confluence (%) as a measure of spheroid size was determined using an integrated analysis tool.
In order to determine the effect of the test compounds over time, the confluence in each well as a measure of spheroid size, was calculated. Confluence of the highest dose of a reference compound was used as baseline for the LC (Low control) and the confluence of DMSO treated cells was used as 0% cytotoxicity (High Control, HC).
Absolute IC50 values were calculated as percent change in confluence as follows: • LC=Low Control: cells treated with e.g. […] of the cytotoxic agent staurosporin, or e.g. cells treated with a high concentration of an alternative reference compound • HC=High Control: Mean confluence (%) (DMSO treated cells)
GraphPad Prism (version 7.00) was used to calculate the IC50. Dose-response equation was used for the plot of % Effect vs Log 10 compound concentration with a variable slope and fixing the maximum to 100% and the minimum to 0%.

KO-52 cells = test: Proliferation assay (spheroid assay), KO-52 control cell line; type: cell-based; conditions: Homo sapiens, 192 h, 8 days; MLL wildtype control cell line; read-out: spheroid assay_KO-52 IC50
Experimental: as §1, §2
In order to assess the anti-proliferative effects, 200 MOLM14 cells, 200° C. […] Spheroid like growth was measured in real-time by live-cell imaging (IncuCyteZOOM, Essenbio, 4× objective) acquiring images at day 8. Confluence (%) as a measure of spheroid size was determined using an integrated analysis tool.
In order to determine the effect of the test compounds over time, the confluence in each well as a measure of spheroid size, was calculated. […]

MOLM-13 tumors = test: Efficacy (survival) in disseminated MOLM-13 (KMT2A-rearranged) model in NSG mice; type: in vivo; conditions: NSG mice bearing established MOLM-13 tumors, vs vehicle; Azacitidine 2 mg/kg ip QD × 7; Compound 51 2 mg/kg po QD × 28; n = 10
Experimental: 4) Efficacy of Menin-MLL Inhibitor in Combination with Azacitidine in MOLM-13 (KMT2A-Rearranged) Model in NSG Mice
Compound 51 was formulated in purified pyrogen-free deionized water, pH 4.0 and prepared to reach a total volume of 8 mL/kg. Doses were adjusted by individual body weight each day. Working stocks of Compound 51 were prepared once per week for each study and stored at 25° C.
Female NSG (NOD.Cg-Prkdc^scid Il2rg^tm1Wjl/SzJ) mice were used when they were approximately 6 to 8 weeks of age and weighed approximately 25 g. All animals could acclimate and recover from any shipping-related stress for a minimum of 7 days prior to experimental use. […]
Animals were monitored daily for clinical signs related to either compound toxicity or tumor burden (i.e., hind limb paralysis, lethargy, etc.).
For survival assessment, results were plotted as the percentage survival against days post tumor implant. […] Median survival was determined utilizing Kaplan-Meier survival analysis. The percent increased life span (ILS) was calculated as: ((median survival day of treated group−median survival day of control group)/median survival day of control group)×100. […]
Survival and body weight data were graphically represented utilizing Prism (Version 9). Statistical significance for body weights was evaluated as described above. […]

Row | SMILES | IC50 (MEIS1 mRNA expression) [nM] | IC50 (MOLM14 cells) [nM] | IC50 (KO-52 cells) [nM] | % ILS (increased life span) (MOLM-13 tumors)
1 | CC(=O)N1CCC(CN2CCC(Cc3cn(-c4ccc(F)cc4C(=O)N(C)C(C)C)c4cncc(C)c34)C2)CC1 (single isomer, unassigned) [Compound 50] | 89 | 39 | 2300 | –
2 | Nc1ncn([C@@H]2O[C@H](CO)[C@@H](O)[C@H]2O)c(=O)n1 [Azacitidine, azacitidine, reference compound] | – | – | – | *37%
